According to patent US20190284192A1, “NITROGENOUS MACROCYCLIC COMPOUND, PREPARATION METHOD THEREFOR, PHARMACEUTICAL COMPOSITION AND APPLICATION THEREOF” (LUOXIN PHARMACEUTICAL (SHANGHAI) CO., LTD., priority 2016, published 2019):
Read-outs that look alike come from different tables or passages of the source.

Tests used:
BRD4 (BD1) = molecular target: T1, BRD4 (BD1) (Homo sapiens, UniProt O60885); experiment: BRD4 (BD1) bromodomain binding, HTRF; conditions: 2 h incubation at r.t.
T1 construct: Each member comprises two tandem bromodomains (BD1 and BD2) for recognizing the acetylated lysine residues

BRD4 (BD2) = molecular target: T2, BRD4 (BD2) (Homo sapiens, UniProt O60885); experiment: BRD4 (BD2) bromodomain binding, HTRF; conditions: 2 h incubation at r.t.
T2 construct: Each member comprises two tandem bromodomains (BD1 and BD2) for recognizing the acetylated lysine residues

MV-4-11 cells = experiment: Inhibitory effect on MV-4-11 cells (CellTiter-Glo); assay type: cell-based; conditions: Homo sapiens, read-out: MV-4-11
Method: The 1st Day: Seed the Cells on the Plate
1. The cells were verified that they were in good conditions by observation under microscope;
2. The cells were transferred to a 15 mL centrifuge tube, after centrifuged at 1000 rpm for 5 min, the supernatant was discarded;
3. The complete medium (IMDM+10% FBS) was added, then blown and patted into single cell suspension, counted by Vi-cell cytometer, the cell suspension was adjusted to desired cell density by the complete medium.
4. The cells were inoculated into a 96 well plate, the cell number was 15000/well at 100 μL per well, 100 μL complete medium was added into the black control.
5. 37° C., 5% CO2 culture overnight.
The 2nd Day: Addition of the Drugs
1. 1000× Compound Plate Preparation
1.1. The test compound was prepared into 10 mM working solution by using DMSO. Then the STS was prepared into 2 mM working solution by using DMSO.
1.2. In the round bottom 96 wells plate, the column 2 of row A to H was added into 60 μL 10 mM test compound (or STS) working solution, columns 3-11 were added into 40 μL DMSO, 20 μL drug solution was pipetted from the column 2 to the column 3, blown and patted for a homogeneous mixture; then 20 μL solution was pipetted from the column 3 to the column 4, blown and patted for a homogeneous mixture, sequently, the drug was diluted by 3 times, 10 concentrations in total. The columns 1 and 12 were supplemented with 40 μL of DMSO.
2. Intermediate plate areparation
A sterile V-bottom 96 deep well plate was used and in each well, 495 μL FBS-free PRMI 1640 medium was added, then 5 μL of the diluted compound (or DMSO) in the 1000× compound plate was pipetted into corresponding position of the V-bottom 96 well plate, blown and patted evenly.
3.1. The cell plate was taken out from the incubator and was observed under microscope. The diluted compound or DMSO in the intermediate plate was added into the cell plate, 11 μL each well.
3.2. The cell was continued to be cultured at 37° C., 5% CO2 for 72 hours.
The 5th Day: CellTiter-Glo Detection of the Cell Activity
1. The CellTiter-Glo buffer and the reaction substrate were taken out from the refrigerator, after balanced to r.t., the buffer was poured into a brown bottle containing the substrate, the bottle was upside down to have the substrate powder sufficientaly dissolved.
2. The cell was observed under microscope; the cell plate was balanced to r.t.
3. The prepared CellTiter-Glo was added into the 96 well plate, at 100 μL/well.
4. The cell plate was placed on a shaker for 10 min, followed by standing at r.t. for 10 min.
5. A white seal film was attached to the bottom of the well plate, and the chemiluminescence signal of each well was detected by the Enspire microplate detector.
6. XLfit was used for data processing. Inhibition rate %=(d−c)/(d−b)×100, while d is the signal value of the DMSO treated group, c is the signal value of the compound treated group, b is signal value of the blank control that only containing medium and DMSO without cells. The data was fitted using the f(x)205[fit=(A+((B−A)/(1+((C/x)^∧D))))] equation in the XLfit software.

[1] = MV4-11, 72 hours, CellTiter-Glo

IC50 (BRD4 (BD1)) [nM] | IC50 (BRD4 (BD2)) [nM] | IC50 (MV-4-11 cells; [1]) [nM] | SMILES | IC50 (MV-4-11 cells; MV4-11, 72 h) [nM]
2 | 1 | 1 | CC[C@@H]1N=C(c2ccc(F)cc2)c2cc(Cl)c(NS(=O)(=O)CC)cc2-c2cn(C)c(=O)cc21 [Compound 4065, (S)—N-(9-chloro-5-ethyl-7-(4-flurophenyl)-2-methyl-3-oxo-3,5-dihydro-2H-benzo[c]pyrido[3,4-e]azepin-10-yl)ethylsulfonamide] | –
1 | 1 | 0.4 | CC[C@@H]1N=C(c2ccc(F)cc2)c2cc(F)c(NS(=O)(=O)CC)cc2-c2cn(C)c(=O)cc21 [Compound 4066, (S)—N-(5-ethyl-9-fluoro-7-(4-flurophenyl)-2-methyl-3-oxo-3,5-dihydro-2H-benzo[c]pyrido[3,4-e]azepin-10-yl)ethylsulfonamide] | –
6 | 1 | > 2000 | CCS(=O)(=O)Cc1ccc2c(c1)-c1cn(C)c(=O)cc1[C@H](CC(=O)O)N=C2c1ccc(F)cc1 [Compound 4067, (S)-2-(10-((ethylsulfonyl)methyl)-7-(4-flurophenyl)-2-methyl-3-oxo-3,5-dihydro-2H-benzo[c]pyrido[3,4-e]azepin-5-yl)acetic acid] | –
1 | 0.5 | 1 | CCS(=O)(=O)Nc1cc2c(cc1Cl)C(c1ccc(Cl)cc1)=N[C@@H](C)c1cc(=O)n(C)cc1-2 [Compound 4068, (S)—N-(9-chloro-7-(4-chlorophenyl)-2,5-dimethyl-3-oxo-3,5-dihydro-2H-benzo[c]pyrido[3,4-e]azepin-10-yl)ethylsulfonamide] | –
4 | 2 | 35 | C[C@@H]1N=C(c2ccc(F)cc2)c2cc(Cl)c(N)cc2-c2cn(C)c(=O)cc21 [Compound 4069, (S)-10-amino-9-chloro-7-(4-flurophenyl)-2,5-dimethyl-2,5-dihydro-3H-benzo[c]pyrido[3,4-e]azepin-3-ketone] | –
1 | 1 | 2 | C[C@@H]1N=C(c2ccc(F)cc2)c2cc(F)c(NS(C)(=O)=O)cc2-c2cn(C)c(=O)cc21 [Compound 4074, (S)—N-(9-fluoro-7-(4-flurophenyl)-2,5-dimethyl-3-oxo-3,5-dihydro-2H-benzo[c]pyrido[3,4-e]azepin-10-yl) methylsulfamide] | –
4 | 2 | 10 | CCS(=O)(=O)Cc1ccc2c(c1)-c1cn(C)c(=O)cc1[C@H](C)N=C2c1ccc(C#N)cc1 [Compound 4075] | –
2 | 1 | 114 | CCS(=O)(=O)Cc1ccc2c(c1)-c1cn(C)c(=O)cc1[C@H](CC(N)=O)N=C2c1ccc(F)cc1 [Compound 4076, (S)-2-(10-((ethylsulfonyl)methyl)-7-(4-flurophenyl)-2-methyl-3-oxo-3,5-dihydro-2H-benzo[c]pyrido[3,4-e]azepin-5-yl)acetamide] | –
1 | 0.4 | 0.4 | CCS(=O)(=O)Nc1cc2c(cc1Cl)C(c1ccc(F)cc1)=N[C@@H](C1CC1)c1cc(=O)n(C)cc1-2 [Compound 4077, (S)—N-(9-chloro-5-cyclopropyl-7-(4-flurophenyl)-2-methyl-3-oxo-3,5-dihydro-2H-benzo[c]pyrido[3,4-e]azepin-10-yl)ethylsulfonamide] | –
3 | 1 | 1 | C[C@@H]1N=C(c2ccc(F)cc2)c2cc(Cl)c(NS(C)(=O)=O)cc2-c2cn(C)c(=O)cc21 [Compound 4079, (S)—N-(9-chloro-7-(4-flurophenyl)-2,5-dimethyl-3-oxo-3,5-dihydro-2H-benzo[c]pyrido[3,4-e]azepin-10-yl)methylsulfamide] | –
2 | 1 | 3 | C[C@@H]1N=C(c2ccc(F)cc2)c2cc(Cl)c(NS(=O)(=O)C3CC3)cc2-c2cn(C)c(=O)cc21 [Compound 4080, (S)—N-(9-chloro-7-(4-flurophenyl)-2,5-dimethyl-3-oxo-3,5-dihydro-2H-benzo[c]pyrido[3,4-e]azepin-10-yl)cyclopropylsulfamide] | –
2 | 1 | 11 | CCS(=O)(=O)Cc1ccc2c(c1)-c1cn(C)c(=O)cc1C(COC)N=C2c1ccc(F)cc1 (stereo not drawn) [Compound 4082, 10-((ethylsulfonyl)methyl)-7-(4-flurophenyl)-5-(methoxylmethyl)-2-methyl-2,5-dihydro-3H-benzo[c]pyrido[3,4-e]azepin-3-ketone] | –
8 | 4 | 31 | CCC(=O)Nc1cc2c(cc1F)C(c1ccc(F)cc1)=N[C@@H](C)c1cc(=O)n(C)cc1-2 [Compound 4083, (S)—N-(9-fluoro-7-(4-flurophenyl)-2,5-dimethyl-3-oxo-3,5-dihydro-2H-benzo[c]pyrido[3,4-e]azepin-10-yl)propanamide] | –
2 | 1 | 0.5 | CCS(=O)(=O)Nc1cc2c(cc1F)C(c1ccc(F)cc1)=N[C@@H](C1CC1)c1cc(=O)n(C)cc1-2 [Compound 4084, (S)—N-(5-cyclopropyl-9-fluoro-7-(4-flurophenyl)-2-methyl-3-oxo-3,5-dihydro-2H-benzo[c]pyrido[3,4-e]azepin-10-yl)ethylsulfonamide] | –
2 | 1 | 4 | CCS(=O)(=O)Cc1cc2c(cc1F)C(c1ccc(F)cc1)=N[C@@H](C)c1cc(=O)n(C)cc1-2 [Compound 4085, (S)-10-((ethylsulfonyl)methyl)-9-fluoro-7-(4-flurophenyl)-2,5-dimethyl-2,5-dihydro-3H-benzo[c]pyrido[3,4-e]azepin-3-ketone] | –
2 | 1 | 3 | CCS(=O)(=O)Cc1cc2c(cc1Cl)C(c1ccc(F)cc1)=N[C@@H](C)c1cc(=O)n(C)cc1-2 [Compound 4086, (S)-9-chloro-10-((ethylsulfonyl)methyl)-7-(4-flurophenyl)-2,5-dimethyl-2,5-dihydro-3H-benzo[c]pyrido[3,4-e]azepin-3-ketone] | –
4 | 1 | 26 | CCS(=O)(=O)Cc1ccc2c(c1)-c1cn(C)c(=O)cc1[C@H](C)N=C2c1ccc(F)cc1OC [Compound 4087, (S)-10-((ethylsulfonyl)methyl)-7-(4-fluoro-2-methoxylphenyl)-2,5-dimethyl-2,5-dihydro-3H-benzo[c]pyrido[3,4-e]azepin-3-ketone] | –
3 | 1 | 26 | CCS(=O)(=O)Cc1ccc2c(c1)-c1cn(C)c(=O)cc1[C@H](CCO)N=C2c1ccc(F)cc1 [Compound 4088, (S)-10-((ethylsulfonyl)methyl)-7-(4-flurophenyl)-5-(2-hydroxyethyl)-2-methyl-2,5-dihydro-3H-benzo[c]pyrido[3,4-e]azepin-3-ketone] | –
8 | 4 | 108 | CCS(=O)(=O)Cc1ccc2c(c1)-c1cn(C)c(=O)cc1CN=C2c1ccc(F)c(OC)c1 [Compound 4089, 10-((ethylsulfonyl)methyl)-7-(4-fluoro-3-methoxylphenyl)-2-methyl-2,5-dihydro-3H-benzo[c]pyrido[3,4-e]azepin-3-ketone] | –
1 | 1 | 3 | CNS(=O)(=O)C(C)(C)c1ccc2c(c1)-c1cn(C)c(=O)cc1[C@H](C)N=C2c1ccc(F)cc1 [Compound 4090, (S)-2-(7-(4-flurophenyl)-2,5-dimethyl-3-oxo-3,5-dihydro-2H-benzo[c]pyrido[3,4-e]azepin-10-yl)-N-methylpropane-2-sulfamide] | –
1 | 0.7 | 3 | CNS(=O)(=O)C(C)c1ccc2c(c1)-c1cn(C)c(=O)cc1[C@H](C)N=C2c1ccc(F)cc1 (stereo partly drawn) [Compound 4091, 1-((S)-7-(4-flurophenyl)-2,5-dimethyl-3-oxo-3,5-dihydro-2H-benzo[c]pyrido[3,4-e]azepin-10-yl)-N-methylethane-1-sulfamide] | –
1 | 0.6 | 3 | CCS(=O)(=O)Nc1cc2c(cc1F)C(c1ccc(F)cc1)=NN(C)c1cc(=O)n(C)cc1-2 [Compound 4092, N-(9-fluoro-7-(4-flurophenyl)-2,5-dimethyl-3-oxo-3,5-dihydro-2H-benzo[e]pyrido[4,3-c][1,2]diazepin-10-yl)ethylsulfonamide] | –
5 | 0.7 | 17 | CCS(=O)(=O)Cc1ccc2c(c1)-c1cn(C)c(=O)cc1N(C)N=C2c1ccc(F)cc1Cl [Compound 4093, 7-(2-chloro-4-flurophenyl)-10-((ethylsulfonyl)methyl)-2,5-dimethyl-2,5-dihydro-3H-benzo[e]pyrido[4,3-c][1,2]diazepin-3-ketone] | –
3 | 2 | 49 | CCS(=O)(=O)Cc1cc2c(cc1OC)C(c1ccc(F)cc1)=NCc1cc(=O)n(C)cc1-2 [Compound 4094, 10-((Ethylsulfonyl)methyl)-7-(4-flurophenyl)-9-methoxyl-2-methyl-2,5-dihydro-3H-benzo[c]pyrido[3,4-e]azepin-3-ketone] | –
5 | 2 | 14 | CCS(=O)(=O)Nc1cc2c(cc1F)C(c1ccc(F)cc1)=NC(C)c1cc(=O)n(C)nc1-2 (stereo not drawn) [Compound 4095, N-(9-Fluoro-7-(4-flurophenyl)-2,5-dimethyl-3-oxo-3,5-dihydropyridin-2H-benzo[c]pyridazino[3,4-e]azepin-10-yl)ethylsulfonamide] | –

SMILES | IC50 (BRD4 (BD1)) [nM] | IC50 (BRD4 (BD2)) [nM] | IC50 (MV-4-11 cells; [1]) [nM] | IC50 (MV-4-11 cells; MV4-11, 72 h) [nM]
C[C@@H]1N=C(c2ccc(F)cc2)c2cc(F)c(N)cc2-c2cn(C)c(=O)cc21 [Compound 4070, (S)-10-amino-9-fluoro-7-(4-flurophenyl)-2,5-dimethyl-2,5-dihydro-3H-benzo[c]pyrido[3,4-e]azepin-3-ketone] | 3 | 2 | – | 16
